Laboratory results from patent publication EP1724268A1, “COMPOUND HAVING TGF-BETA INHIBITORY ACTIVITY AND PHARMACEUTICAL COMPOSITION CONTAINING SAME” (KIRIN BEER KABUSHIKI KAISHA, priority 2004, dated 2005).
Like-named read-outs stand apart in the source and are kept apart here.

Test system: TGFβ signal
Experiment: TGFβ signal inhibitory activity, (SBE)4-Luc reporter in A549 cells (Test Examples 1A and 1B)
Assay type: cell-based, human
Details: Homo sapiens, A549, read-out: TGFβ inhibition rate, %
Method in brief: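 Compounds at 3 µM and 10 µM (some 1 µM) were added with 2 ng/ml TGFβ-1 to A549 cells stably expressing an SBE-driven luciferase, then cultured 4 hr. Chemiluminescent luciferase signal gave % inhibition versus TGFβ-alone and no-TGFβ controls.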

[1] = 3 µM, compounds of Reference Examples (Test Example 1B)
[2] = 10 µM, compounds of Reference Examples (Test Example 1B)
[3] = test compound 3 µM, Reference Examples, Table 1B
[4] = test compound 10 µM, Reference Examples, Table 1B
[5] = test compound 3 µM, TGFβ-1 2 ng/ml, 4 hr, Table 1A
[6] = test compound 10 µM, TGFβ-1 2 ng/ml, 4 hr, Table 1A

Compound	inhibition at 3 µM [1] [%]	inhibition at 10 µM [2] [%]	inhibition at 3 µM [5] [%]	further results
COc1cc2c(Oc3cc4ccccc4nc3C)ccnc2cc1OCC1CO1 (stereo not shown) [Compound r383, 6-Methoxy-4-(2-methyl-quinolin-3-yloxy)-7-oxilanyl methoxy-quinoline]	97	100	–	–
COc1cc2nccc(Oc3ccccc3C(C)=O)c2cc1OC [Compound r29]	–	–	–	inhibition at 3 µM [3]: 0%; inhibition at 10 µM [4]: 67%
COc1cc2nccc(Oc3ccc4ccccc4c3C=O)c2cc1OC [Compound r27]	–	–	–	inhibition at 3 µM [3]: 0%; inhibition at 10 µM [4]: 93%
Cc1cc(Oc2ccnc3ccc(-c4cccn4C(=O)OC(C)(C)C)cc23)c(-c2ccccn2)nc1C [Compound 167, 2-[4-(5,6-Dimethyl-[2,2']bipyridinyl-3-yloxy)-quinolin-6-yl]-pyrrole-1-carboxylate tert-butyl ester]	–	–	35	inhibition at 10 µM [6]: 85%
COc1cc2nccc(Oc3ccc(SC)nc3-c3ccccn3)c2cc1OC [Compound r266]	92	100	–	–
COc1ccc2ncnc(Oc3cc(C)c(C)nc3-c3ccc(C)cn3)c2c1 [Compound 39, 6-Methoxy-4-(5,6,5'-trimethyl-[2,2']bipyridin-3-yloxy)-quinazoline]	–	–	88	inhibition at 10 µM [6]: 99%
Cc1cc(Oc2ccnc3ccc(OCCO)cc23)c(-c2ccccn2)nc1C [Compound 142, 2-[4-(5,6-Dimethyl-[2,2']bipyridinyl-3-yloxy)-quinolin-6-yloxy]-ethanol]	–	–	98	inhibition at 10 µM [6]: 100%
COc1cc2nccc(Oc3ccc4c(ccn4C)c3)c2cc1OC [Compound r20, 6,7-Dimethoxy-4-[(1-methyl-5-indolyl)oxy]quinoline]	–	–	–	inhibition at 3 µM [3]: 19%; inhibition at 10 µM [4]: 69%
COc1cc2nccc(Oc3cc(Cl)ccc3C(C)=O)c2cc1OC [r181]	42	82	–	–
COc1cc2c(Oc3cc(C)c(C)nc3-c3ccccn3)ccnc2cc1OCCCO [Compound r340]	99	–	–	–
COc1cc2nccc(Oc3ccccc3C(=O)OCc3ccccc3)c2cc1OC [r103]	–	–	–	inhibition at 3 µM [3]: 20%; inhibition at 10 µM [4]: 84%
COc1cc2c(Oc3cc4ccccc4nc3C)ccnc2cc1-c1ccncc1 [r414]	82	100	–	–
COc1ccc(Oc2ccnc3cc(OC)c(OC)cc23)c(C(=O)NC(C)C)c1 [Compound r111]	–	–	–	inhibition at 3 µM [3]: 29%; inhibition at 10 µM [4]: 92%
Cc1cc(Oc2ccnc3cc(-c4ncccn4)ccc23)c(-c2ccccn2)nc1C [Compound 177, 5,6-Dimethyl-3-(7-pyrimidin-2-yl-quinolin-4-yloxy)-[2,2']blpyridine]	–	–	98	inhibition at 10 µM [6]: 100%
COc1cc2c(Oc3cc(C)c(C)cc3C(C)=O)ccnc2cc1OCCCn1ccnc1 [Compound r321]	100	100	–	–
Cc1ccc(Oc2ccnc3ccc(OCCCN4CCCCC4)cc23)c(-c2ncccn2)n1 [Compound 212, 4-(6-Methyl-2-pyrimidin-2-yl-pyridin-3-yloxy)-6-(3-piperidin-1- ? -propoxy)-quinoline]	–	–	55	–
COc1cc2c(Oc3cc4ccccc4nc3C)ccnc2cc1OCCN1CCCCC1 [Compound r358]	100	100	–	–
COc1cc2c(Oc3cc(C)c(C)nc3-c3ccc(C)cn3)ccnc2cc1OCCCO [Compound r460]	97	–	–	–
CCc1ccc(Oc2ccnc3cc(C(N)=O)c(Cl)cc23)c(-c2ccccn2)n1 [Compound 185, 6-Chloro-4-(6-ethyl-[2,2']bipyridinyl-3-yloxy)-quinoline-7-carboxylic acid amide]	–	–	96	inhibition at 10 µM [6]: 100%

Compound	inhibition at 3 µM [1] [%]	inhibition at 10 µM [2] [%]	inhibition at 3 µM [5] [%]	further results
COc1ccc(-c2nc(C)ccc2Oc2ccnc3cc(OC)c(OC)cc23)cc1 [Compound r249]	52	98	–	–
COc1cc2nccc(Oc3ccc(C)nc3-c3cc(F)cc(F)c3)c2cc1OC [Compound r254]	100	100	–	–
COc1cc2nccc(Oc3ccc(C)cc3C(=O)c3ccc(O)cc3)c2cc1OC [r188]	80	100	–	–
COc1cc2nccc(Oc3cc(C)c(C)cc3C(C)=O)c2cc1OC [Compound r38]	–	–	–	inhibition at 3 µM [3]: 98%; inhibition at 10 µM [4]: 100%
COc1cc2c(Oc3cc4ccccc4nc3C)ccnc2cc1OC[C@@H](O)CO [Compound r385]	100	100	–	–
COc1cc2nccc(Oc3ccc4ccccc4c3C(C)=O)c2cc1OC [r42]	–	–	–	inhibition at 3 µM [3]: 90%; inhibition at 10 µM [4]: 93%
COc1cc2ncnc(Oc3ccc(C)cc3C(=O)c3ccccc3)c2cc1OC [r161]	–	–	–	inhibition at 3 µM [3]: 25%; inhibition at 10 µM [4]: 83%
Cc1ccc(Oc2ccnc3ccc(OCCCN4CCN(CCO)CC4)cc23)c(-c2ncccn2)n1 [Compound 221, 2-(4-{3-[4-(6-Methyl-2-pyrimidin-2-yl-pyridin-3-yloxy)-quinolin-6-yloxy]-propyl}-piperazin-1-yl)-ethano I]	–	–	39	inhibition at 10 µM [6]: 79%
CCCCC(O)c1cc(C)ccc1Oc1ccnc2cc(OC)c(OC)cc12 (stereo not shown) [r10]	–	–	–	inhibition at 3 µM [3]: 38%; inhibition at 10 µM [4]: 87%
Cc1csc2ncnc(Oc3cc4cccnc4nc3-c3ccccc3)c12 [Compound 77, 3-(5-Methyl-thieno[2,3-d]pyrimidin-4-yloxy)-2-phenyl-[1,8]naphthyridine]	–	–	93	inhibition at 10 µM [6]: 99%
COc1cc2c(Oc3cc4cccnc4nc3C)ccnc2cc1OCC1CO1 (stereo not shown) [Compound r401]	24	76	–	–
COc1cc2nccc(Oc3ccc(C)nc3C#N)c2cc1OC [Compound r213, 3-(6,7-Dimethoxy-quinolin-4-yloxy)-6-methyl-pyridin-2-carbonitrile]	28	65	–	–
COc1cc2nccc(Oc3cc4cccnc4nc3-c3ccccc3)c2cc1OC(C)C [Compound 118, 3-(6-Isopropoxy-7-methoxy-quinolin-4-yloxy)-2-phenyl-[1,8]naphthyridine]	–	–	100	inhibition at 10 µM [6]: 100%
Cc1cc(Oc2ccnc3ccncc23)c(-c2ccccn2)nc1C [Compound 31, 4-(5,6-Dimethyl-[2,2']bipyridin-3-yloxy)-[1,6]naphthyridine]	–	–	85	inhibition at 10 µM [6]: 99%
COc1ccc2c(Oc3cc4cccnc4nc3-c3ccccc3)ccnc2c1 [Compound 56, 3-(7-Methoxy-quinolin-4-yloxy)-2-phenyl-[1,8]naphthyridine]	–	–	99	inhibition at 10 µM [6]: 100%
CCc1nc2ccncc2cc1Oc1ccnc2cc(OC)c(OC)cc12 [r424]	28	79	–	–
COc1cc2c(Oc3cc4ccccc4nc3C)ccnc2cc1OCCN1CCC(C(N)=O)CC1 [Compound r362]	100	100	–	–
COc1cc2nccc(Oc3cc4cccnc4nc3-c3csc4ccccc34)c2cc1OC [Compound 91, 2-Benzo[b]thiophen-3-yl-3-(6,7-dimethoxy-quinolin-4-yloxy)-[1,8]naphthyridine]	–	–	97	inhibition at 10 µM [6]: 100%
COc1cc2nccc(Nc3cnc4ccccc4c3)c2cc1OC [r418]	46	73	–	–
